In patent US9328060B2, “J-series prostaglandin-ethanolamides as novel therapeutics” (East Carolina University, priority 2013, dated 2016):

How the values were obtained:
[1] = system: COX-2 overexpressing squamous carcinoma cell line JWF2; conditions: JWF2, background section; cited from earlier work
tumor cells = test: Selective toxicity in tumor cells (FIG. 15); type: cell-based
tumor cell = test: Tumor cell death (FIG. 7); type: cell-based; conditions: compared to 15d-PGJ
COX-2 = molecular target: T1, COX-2 (Mus musculus, UniProt Q05769); test: LC/MS of J-series PG-ethanolamides in culture medium of AEA-treated cells; type: cell-based; conditions: COX-2 overexpressing cells; for J-series PGs identified in AEA-treated cells: FIG. 6C
T1 construct: endogenous in cells; host or cells: JWF2 keratinocytes
T1 sequence (Q05769 18-604): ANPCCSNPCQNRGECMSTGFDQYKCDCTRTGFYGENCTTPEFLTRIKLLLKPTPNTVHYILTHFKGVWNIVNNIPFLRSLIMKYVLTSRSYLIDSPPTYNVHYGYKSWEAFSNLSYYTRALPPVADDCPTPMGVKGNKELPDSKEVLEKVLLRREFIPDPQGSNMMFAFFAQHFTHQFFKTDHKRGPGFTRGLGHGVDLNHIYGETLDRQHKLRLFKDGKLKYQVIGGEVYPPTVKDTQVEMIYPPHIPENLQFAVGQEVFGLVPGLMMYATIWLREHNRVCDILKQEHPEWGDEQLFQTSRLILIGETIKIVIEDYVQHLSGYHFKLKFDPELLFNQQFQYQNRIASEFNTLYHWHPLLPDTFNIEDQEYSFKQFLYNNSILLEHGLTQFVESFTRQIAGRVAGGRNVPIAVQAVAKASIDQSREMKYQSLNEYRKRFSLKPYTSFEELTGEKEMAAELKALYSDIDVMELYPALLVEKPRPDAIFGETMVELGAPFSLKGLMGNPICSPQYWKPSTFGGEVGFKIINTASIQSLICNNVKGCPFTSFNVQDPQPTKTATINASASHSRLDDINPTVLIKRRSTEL
Experimental: To identify the specific J-series PGs that are produced in AEA-treated cells that overexpress COX-2 we treated the cells with AEA, collected the culture medium and analyzed J-series PGs using LC/MS.
To determine the direct role of COX-2 in AEA-induced ER stress, the requirement of COX-2 for J-series PG-ethanolamide synthesis was assessed. Results are depicted in FIG. 9D.

[2] = system: tumorigenic keratinocytes (Jwf2); test: Apoptosis in tumorigenic keratinocytes (FIG. 14); type: cell-based; conditions: Jwf2, FIG. 14
[3] = system: Tumorigenic JWF2 keratinocytes; test: MTS cell viability, tumorigenic JWF2 keratinocytes; type: cell-based; conditions: various concentrations, FIG. 1
Experimental: Tumorigenic JWF2 keratinocytes were treated with various concentrations of AEA and cell viability measured using MTS analysis. […] An interesting feature of tumorigenic keratinocytes is that they overexpress COX-2. However, non-tumorigenic keratinocytes contain low basal levels of COX-2. Therefore, the role of COX-2 in the cytotoxicity of AEA was examined.
JWF2 tumorigenic keratinocytes were treated with each of these prostaglandins and cell survival measured in MTS assays.

[4] = system: non-tumorigenic HaCaT keratinocytes; test: MTS cell viability, non-tumorigenic HaCaT keratinocytes; type: cell-based; conditions: FIG. 1
[5] = system: D- and J-series PG synthesis; test: Prostaglandin synthesis in JWF2 cells by ELISA; type: cell-based; conditions: various concentrations of AEA, FIG. 6A
Experimental: To determine if D- and J-series PGs are synthesized endogenously, JWF2 cells were treated with various concentrations of AEA and prostaglandin synthesis measured using ELISA assays.

eIF2a phosphorylation = test: ER stress (eIF2a phosphorylation staining) in HaCaT transfected with COX-2 or empty vector; type: cell-based; conditions: HaCaT transfected with COX-2, relative to empty vector transfected cells, FIG. 2
Experimental: Since it was determined that AEA-induced cell death required COX-2 we examined whether ER stress also required COX-2. In this experiment we utilized HaCaT keratinocytes which express low basal levels of COX-2. The cells were transfected with an empty vector (pcDNA6.1) or an expression vector containing COX-2. In FIG. 2 the red signal indicates COX-2 expression, green indicates P-eIF2a phosphorylation and the blue stains the nuclear membrane for orientation.

activated caspase-3 = test: Apoptosis (activated caspase-3 staining) with or without COX-2; type: cell-based
Description: Red staining indicates COX-2 while the green stain indicates activated caspase-3, a hallmark for apoptosis.

HaCaT keratinocytes = conditions: low basal COX-2, background section; cited from earlier work
[6] = system: CHOP10 expression and Caspase-3 cleavage; test: CHOP10 expression and caspase-3 cleavage (FIGS. 12, 13); type: cell-based
H-PGDS and L-PGDS = test: AEA-induced PGD2 and PGJ2 production (FIG. 11); type: cell-based
epidermal tumor = conditions: background section; cited from earlier work
[7] = system: Lewis lung adenocarcinoma; conditions: oral administration, background section; cited from earlier work

CCCCC/C=C/C=C1/C(=O)C=C[C@@H]1C/C=C\CCCC(=O)O [15-deoxy Δ^12,14 PGJ2, 15-deoxy-Δ^12,14-Prostaglandin J2]
cell death [1]: inducers of cell death

CCCCC/C=C/C=C1/C(=O)C=CC1C/C=C\CCCC(=O)NCCO (stereo not shown) [15d-PGJ-EA, 15-deoxy Δ^12,14-prostagladin J2-ethanolamide]
toxicity, tumor cell selectivity (tumor cells): selectively toxic in tumor cells | tumor cell death (tumor cell): potent inducer of tumor cell death | relative abundance among J-series PG-EAs produced (COX-2): most abundant produced | J-series PGs identified in AEA-treated cells (COX-2): metabolic products of AEA | apoptosis [2]: induces apoptosis

CCCCC/C=C\C/C=C\C/C=C\C/C=C\CCCC(=O)NCCO [AEA, arachidonoyl ethanolamide]
cell viability (MTS absorbance) [3]: concentration-dependent decline in tumor cell viability | cell death [1]: induce cell death | cell viability (MTS absorbance) [4]: did not lead to a loss of viability | D-series PG synthesis [5]: concentration-dependent increase | J-series PG synthesis [5]: concentration-dependent increase | eIF2a phosphorylation (ER stress) (eIF2a phosphorylation): significant increase in eIF2a phosphorylation | apoptosis (activated caspase-3) (activated caspase-3; cells with COX-2, FIG. 3): induced apoptosis | apoptosis (activated caspase-3) (activated caspase-3; in the absence of COX-2, FIG. 3): did not undergo apoptosis | cell death (HaCaT keratinocytes): does not induce cell death

CCCCCC(O)CC=C1C(=O)C=CC1CC=CCCCC(=O)NCCO (stereo not shown) [D12-PGJ-EA]
J-series PGs identified in AEA-treated cells (COX-2): metabolic products of AEA

CCCCC[C@H](O)/C=C/[C@H]1C(=O)C[C@H](O)[C@@H]1C/C=C\CCCC(=O)NCCO [PGD2-EA]
cell death [1]: cytotoxic | CHOP10 expression ([6]; FIG. 13): increased | Cl-Casp3 expression ([6]; FIG. 13): increased

CCCCC[C@H](O)/C=C/[C@H]1C(=O)C[C@H](O)[C@@H]1C/C=C\CCCC(=O)O [PGD2]
cell death [1]: cytotoxic

CCCCC[C@H](O)/C=C/[C@H]1C(=O)C=C[C@@H]1C/C=C\CCCC(=O)O [PGJ2]
cell death [1]: inducers of cell death

CCCCCC(O)C=CC1C(=O)C=CC1CC=CCCCC(=O)NCCO (stereo not shown) [PGJ-EA]
J-series PGs identified in AEA-treated cells (COX-2): metabolic products of AEA

Cl[Se](Cl)(Cl)Cl [SeCL4]
AEA-induced PGD2 production (H-PGDS and L-PGDS): reversed | AEA-induced PGJ2 production (H-PGDS and L-PGDS): reversed | AEA-induced CHOP10 expression ([6]; FIG. 12): inhibited | AEA-induced Caspase-3 cleavage ([6]; indicator of apoptosis, FIG. 12): inhibited

Cc1c(C(=O)c2cccc3ccccc23)c2cccc3c2n1[C@H](CN1CCOCC1)CO3 [WIN-55, 212-2]
epidermal tumor growth (epidermal tumor): blocked

CCCCCc1cc(O)c2c(c1)OC(C)(C)[C@@H]1CCC(C)=C[C@@H]21 [Δ^9-THC, Δ^9-tetrahydrocannabinol]
Lewis lung adenocarcinoma growth [7]: reduce Lewis lung adenocarcinoma growth
